Results from US7244738B2, “Arylamine-substituted quinazolinone compounds useful as alpha 1A/B adrenergic receptor antagonists” (Roche Palo Alto LLC, priority 2003, dated 2007).

How the values were obtained:
alpha1D adrenoceptor = target: T1, alpha1D adrenoceptor (Homo sapiens, UniProt P25100); assay: [3H]prazosin binding (alpha1-adrenoceptor) assay, membranes of transfected CHO-K1 cells; conditions: transfected CHO-K1 cell membranes, read-out: pKi alpha 1D (converted)
T1 construct: expressed in transfected cells; host or cells: CHO-K1
T1 sequence (P25100 1-572): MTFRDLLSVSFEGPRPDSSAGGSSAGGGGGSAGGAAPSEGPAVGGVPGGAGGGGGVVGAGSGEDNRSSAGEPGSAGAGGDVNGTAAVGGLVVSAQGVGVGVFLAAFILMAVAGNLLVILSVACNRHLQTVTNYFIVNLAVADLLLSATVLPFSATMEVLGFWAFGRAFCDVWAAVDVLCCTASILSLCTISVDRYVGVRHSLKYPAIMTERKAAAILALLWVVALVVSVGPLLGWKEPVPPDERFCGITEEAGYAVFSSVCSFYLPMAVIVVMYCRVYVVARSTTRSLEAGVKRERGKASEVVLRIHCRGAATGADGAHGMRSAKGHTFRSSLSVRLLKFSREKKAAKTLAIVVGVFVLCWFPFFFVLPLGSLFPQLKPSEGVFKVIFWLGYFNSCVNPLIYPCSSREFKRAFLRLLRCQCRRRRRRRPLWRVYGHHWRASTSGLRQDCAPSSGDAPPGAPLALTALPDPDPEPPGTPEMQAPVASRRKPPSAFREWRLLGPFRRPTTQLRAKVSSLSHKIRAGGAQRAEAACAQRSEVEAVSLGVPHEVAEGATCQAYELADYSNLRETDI
Protocol: (§1) Example [^3H]prazosin Binding (Alpha1-Adrenoceptor) Assay
(§2) Alpha1A, alpha1B, and alpha1D adrenoceptor transfected CHO-K1 cells, prepared using the methods described by Chang et al., FEBS Lett. 1998, 422:279–283, were grown to confluence in T-162 tissue culture flasks in Ham's F-12 culture medium supplemented with 10% fetal bovine serum, geneticin (150 μg/mL) and streptomycin/penicillin (30 μg/mL/30 μg/mL) at 37° C. in 7% CO2. Cells were harvested by incubating with phosphate-buffered saline (PBS) containing 30 μM EDTA for 5–10 min at 37° C. Cells were pelleted by centrifuging at 500×g for 5 min, and the pelleted cells were homogenized (Polytron homogenizer) in 10 vols (w/v) of 50 mM Tris, 1 mM EDTA, (homogenisation buffer, pH 7.4 at 4° C.). The homogenate was centrifuged at 45,000×g for 20 min. The pellet was resuspended in the homogenizing buffer and rehomogenized. The resulting homogenate was centrifuged at 45,000×g for 20 min. The pellet was resuspended in 50 mM Tris buffer (pH 7.4 at 4° C.), aliquoted, frozen, and stored at −80° C. for further use.
(§3) The membranes were thawed at room temperature and diluted in assay buffer (50 mM Tris buffer at […]) at 37° C. and homogenized using the Polytron tissue disrupter. The membranes were incubated with the radioligand ([^3H]prazosin, NEN, 0.1–0.5 nM) and test compound at 37° C. for 30 min. The membranes were then filtered over polyethyleneimine-treated GF/B unifilter plates using a Packard Filtermate Harvester and washed with ice-cold 50 mM Tris-HCl, 1 mM EDTA buffer (3×3 sec. washes). Scintillation cocktail was added to the filter plates and bound radioligand determined by liquid scintillation spectrophotometry.
(§4) For each experiment, total binding (in the absence of any test or reference compounds) and non-specific binding (10 μM phentolamine) were determined. For each sample tested, the concentration producing 50% inhibition of binding (IC50) and Hill Slope (nH) was determined using iterative non-linear curve fitting techniques with Kaleidagraph (Synergy Software) or other appropriate software. If the radioligand KD was known, the inhibition dissociation constant (KI) of each ligand was determined according to the method of Cheng and Prusoff (Cheng, Y-C. and Prusoff, W. H., Biochem. Pharmacol., 1973, 22, 3099–3108).

Alpha1A adrenoceptor = target: T2, Alpha1A adrenoceptor (Homo sapiens, UniProt P35348); assay: as above; conditions: transfected CHO-K1 cell membranes, read-out: pKi alpha 1A (converted)
T2 construct: expressed in transfected cells; host or cells: CHO-K1
T2 sequence (P35348 1-466): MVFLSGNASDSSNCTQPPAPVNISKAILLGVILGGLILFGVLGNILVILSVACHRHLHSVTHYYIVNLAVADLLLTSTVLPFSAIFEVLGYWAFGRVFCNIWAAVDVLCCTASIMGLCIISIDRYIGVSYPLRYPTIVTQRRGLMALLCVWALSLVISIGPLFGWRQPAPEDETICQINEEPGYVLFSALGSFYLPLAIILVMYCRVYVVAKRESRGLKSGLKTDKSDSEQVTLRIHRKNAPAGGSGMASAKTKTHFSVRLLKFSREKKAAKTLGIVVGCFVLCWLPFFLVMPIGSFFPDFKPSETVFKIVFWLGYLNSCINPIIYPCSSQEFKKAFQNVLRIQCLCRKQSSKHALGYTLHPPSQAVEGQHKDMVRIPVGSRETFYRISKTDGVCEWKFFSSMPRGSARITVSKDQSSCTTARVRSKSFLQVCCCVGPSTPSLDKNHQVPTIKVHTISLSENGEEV
Protocol: as §1, §2, §3, §4

alpha1B adrenoceptor = target: T3, alpha1B adrenoceptor (Homo sapiens, UniProt P35368); assay: as above; conditions: transfected CHO-K1 cell membranes, read-out: pKi alpha 1B (converted)
T3 construct: expressed in transfected cells; host or cells: CHO-K1
T3 sequence (P35368 1-520): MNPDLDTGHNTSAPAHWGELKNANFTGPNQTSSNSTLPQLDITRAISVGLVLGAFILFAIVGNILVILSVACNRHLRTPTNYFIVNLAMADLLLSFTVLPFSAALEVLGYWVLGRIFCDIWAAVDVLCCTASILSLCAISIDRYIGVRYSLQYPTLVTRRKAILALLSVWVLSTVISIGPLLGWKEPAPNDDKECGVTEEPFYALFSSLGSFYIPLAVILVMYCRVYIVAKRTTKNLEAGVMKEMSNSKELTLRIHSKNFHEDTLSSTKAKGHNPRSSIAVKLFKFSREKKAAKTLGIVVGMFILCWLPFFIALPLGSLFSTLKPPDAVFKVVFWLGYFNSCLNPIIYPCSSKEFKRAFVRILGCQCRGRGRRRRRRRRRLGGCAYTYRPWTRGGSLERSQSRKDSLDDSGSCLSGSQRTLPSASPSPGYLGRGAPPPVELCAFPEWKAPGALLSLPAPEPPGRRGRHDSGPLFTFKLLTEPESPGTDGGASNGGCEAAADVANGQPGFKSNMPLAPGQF
Protocol: as §1, §2, §3, §4

anesthetized dog = assay: Dog in vivo intraurethral and blood pressure assay; conditions: anesthetized male Mongrel dog, i.v. bolus, increasing doses
Protocol: Dog In Vivo Intraurethral and Blood Pressure Assay
The following describes an in vivo assay for measuring the relative effect of test compounds on hypogastric nerve stimulation-induced increases in intraurethral pressure and phenylephrine-induced increases in diastolic blood pressure in anesthetized dog.
Male Mongrel dogs (10 to 20 kg) were fasted for 12 to 18 hours and anesthetized with phenobarbital sodium (36 mg/kg, i.v.). An endotracheal tube was inserted and thereafter the lungs were mechanically ventilated with room air. The right femoral vein was isolated and cannulated with two polyethylene cannulae, one for the administration of a continuous infusion of phenobarbital sodium (5 to 10 mg/kg/hr) and the other for bolus administration of test substances. The right femoral artery was isolated and cannulated to the abdominal aorta with a fluid filled polyethylene cannula connected to an external pressure transducer for monitoring diastolic aortic pressure (DAP). The bladder was exposed via a ventral midline abdominal incision and emptied of urine through a 22 gauge needle. The bladder was cannulated through a stab incision with a water filled balloon catheter connected to an external pressure transducer for monitoring prostatic intraurethral pressure (IUP). The right hypogastric nerve (HGN) was carefully isolated and attached to a Dastre's electrode for nerve stimulation. […]

Row | Ki (alpha1D adrenoceptor) | Ki (Alpha1A adrenoceptor) | Ki (alpha1B adrenoceptor) | melting point | SMILES | further results
1 | 69.2 nM | 7.41 nM | 0.891 nM | – | COc1cc2[nH]c(NCc3cccc(N=C(C)N(C)C)c3)nc(=O)c2c(C)c1OC | –
2 | 550 nM | 3.16 nM | 3.09 nM | – | CCN(C)Cc1ccc(CN(C)c2nc(=O)c3c(OC)c(OC)c(OC)cc3[nH]2)cc1 [2-({4-[(ethyl-methyl-amino)-methyl]-benzyl}-methyl-amino)-5,6,7-trimethoxy-1H-quinazolin-4-one] | –
3 | 141 nM | 1.55 nM | 3.72 nM | – | COc1cc2[nH]c(N(C)Cc3cccc(C(C)N(C)C)c3)nc(=O)c2c(OC)c1OC (stereo not drawn) [2-{[3-(1-Dimethylamino-ethyl)-benzyl]-methyl-amino}-5,6,7-trimethoxy-1H-quinazolin-4-one] | –
4 | 2630 nM | 813 nM | 14.8 nM | – | COc1cc2[nH]c(N(C)Cc3cccc(C4=NCCO4)c3)nc(=O)c2c(OC)c1OC [2-{[3-(4,5-dihydro-oxazol-2-yl)-benzyl]-methyl-amino}-5,6,7-trimethoxy-1H-quinazolin-4-one] | –
5 | 794 nM | 7.08 nM | 6.92 nM | – | COc1cc2[nH]c(N(C)Cc3ccc(OCC(O)CO)cc3)nc(=O)c2c(C)c1OC (stereo not drawn) [2-{[4-(2,3-dihydroxy-propoxy)-benzyl]-methyl-amino}-6,7-dimethoxy-5-methyl-1H-quinazolin-4-one] | –
6 | 5370 nM | 5.37 nM | 7.41 nM | – | COc1cc2[nH]c(N(C)Cc3cccc(CN4CCC(OC)C4)c3)nc(=O)c2c(OC)c1OC (stereo not drawn) [5,6,7-trimethoxy-2-{[3-(3-methoxy-pyrrolidin-1-ylmethyl)-benzyl]-methyl-amino}-1H-quinazolin-4-one] | –
7 | 2630 nM | 3.24 nM | 14.8 nM | – | COc1cc2[nH]c(N(C)Cc3ccc4c(c3)CN(C)C4)nc(=O)c2c(C)c1OC [6,7-Dimethoxy-5-methyl-2-[methyl-(2-methyl-2,3-dihydro-1H-isoindol-5-ylmethyl)-amino]-1H-quinazolin-4-one] | –
8 | – | – | – | 130 to 133 °C | COc1cc2[nH]c(N(C)Cc3cccc(N=C4CCCN4C)c3)nc(=O)c2c(OC)c1OC [Example G-39, 5,6,7-Trimethoxy-2-{methyl-[3-(1-methyl-pyrrolidin-2-ylideneamino)-benzyl]-amino}-1H-quinazolin-4-one] | –
9 | – | – | – | 175.4 to 177.2 °C | COc1cc2[nH]c(N(C)Cc3cccc(NC4=NCCC4)c3)nc(=O)c2c(C)c1OC [Example G-42, 2-{[3-(4,5-Dihydro-3H-pyrrol-2-ylamino)-benzyl]-methyl-amino}-6,7-dimethoxy-5-methyl-1H-quinazolin-4-one] | –
10 | – | – | – | 207 to 209 °C | COc1cc2[nH]c(N(C)Cc3cccc(NC4=NCCC4)c3)nc(=O)c2c(OC)c1OC [Example G-43, 2-{[3-(4,5-Dihydro-3H-pyrrol-2-ylamino)-benzyl]-methyl-amino}-5,6,7-trimethoxy-1H-quinazolin-4-one] | –
11 | – | – | – | 165.5 to 166.5 °C | COc1cc2nc(N(C)Cc3cccc(N4CCCC4=O)c3)[nH]c(=O)c2c(OC)c1OC [Example H-1, 5,6,7-Trimethoxy-2-{methyl-[3-(2-oxo-pyrrolidin-1-yl)-benzyl]-amino}-1H-quinazolin-4-one] | –
12 | – | – | – | 145 to 148 °C | COc1cc2nc(N(C)Cc3cccc(C4=NCCN4C)c3)[nH]c(=O)c2c(C)c1OC [Example H-2, 6,7-Dimethoxy-5-methyl-2-{methyl-[3-(1-methyl-4,5-dihydro-1H-imidazol-2-yl)-benzyl]-amino}-1H-quinazolin-4-one] | –
13 | – | – | – | 155.7 to 158 °C | COc1cc2nc(N(C)Cc3cccc(C4CCN(C)CC4)c3)[nH]c(=O)c2c(C)c1OC [Example H-3, 6,7-Dimethoxy-5-methyl-2-{methyl-[3-(1-methyl-piperidin-4-yl)-benzyl]-amino}-1H-quinazolin-4-one] | –
14 | – | – | – | 177 to 180 °C | COc1cc2[nH]c(N(C)Cc3cccc(N4CCN=C4C)c3)nc(=O)c2c(C)c1OC [Example H-6, 6,7-Dimethoxy-5-methyl-2-{methyl-[3-(2-methyl-4,5-dihydro-imidazol-1-yl)-benzyl]-amino}-1H-quinazolin-4-one] | –
15 | – | – | – | – | COc1cc2nc(N3CCN(C(=O)c4ccco4)CC3)nc(N)c2cc1OC [prazosin] | inhibition of hypogastric nerve (HGN) stimulation-induced increases in intraurethral pressure (IUP) (anesthetized dog): inhibited increases in IUP and DAP in similar fashion; inhibition of phenylephrine-induced increases in diastolic aortic pressure (DAP) (anesthetized dog): inhibited increases in IUP and DAP in similar fashion
